Assay [1] addresses T1, O-acetyl-L-serine sulfhydrylase (EhOASS) (Entamoeba histolytica, UniProt O15570). Briefly: PLP fluorescence titration (ex […] nm, em […] nm); also […] inhibition of purified enzyme at […]. The class given is binding.
Assay [2] concerns the target T1, O-acetyl-L-serine sulfhydrylase (EhOASS). Described as above. The class given is binding. The source holds these as a separate data set.

Read-outs that look alike come from different tables or passages of the source.

T1 sequence (O15570 entry or part of it): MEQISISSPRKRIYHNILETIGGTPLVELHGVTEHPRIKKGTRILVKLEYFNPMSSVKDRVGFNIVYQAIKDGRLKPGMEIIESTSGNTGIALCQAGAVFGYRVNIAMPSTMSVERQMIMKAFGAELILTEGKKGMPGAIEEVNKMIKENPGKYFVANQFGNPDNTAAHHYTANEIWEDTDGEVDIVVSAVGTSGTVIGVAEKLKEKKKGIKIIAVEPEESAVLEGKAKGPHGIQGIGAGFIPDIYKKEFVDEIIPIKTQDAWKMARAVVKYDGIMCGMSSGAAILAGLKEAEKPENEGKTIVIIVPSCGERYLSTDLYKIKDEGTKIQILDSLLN

As usually defined, the Kd is the constant that tells how readily two partners part at equilibrium. Read a high Kd as lower affinity. `COc1ccc(C2C(C(C)=O)=C(O)C(=O)N2CCC(=O)O)cc1` (centres unmarked) [ZINC03984585, 3-[3-acetyl-4-hydroxy-2-(4-methoxyphenyl)-5-oxo-2,5-dihydro-1H-pyrrol-1-yl]propanoic acid] registered a Kd in assay [1] of 0.18 µM. Compound `O=C(CSc1nc(O)cc(=O)[nH]1)c1c[nH]c2ccccc12` [ZINC08931589, 4-hydroxy-2-[2-(1H-indol-3-yl)-2-oxoethyl]sulfanyl-1H-pyrimidin-6-one] had an equilibrium dissociation constant (Kd) in assay [2] of about 8.05 µM.

Source of the values: paper PMC3280239, “Virtual Screening, Identification and In Vitro Testing of Novel Inhibitors of O-Acetyl-L-Serine Sulfhydrylase of Entamoeba histolytica” (PLoS ONE, 2012).
